Test results reported in patent publication US7723325B2, “5-amido-indole-2-carboxamide derivatives” (Hoffman-La Roche Inc., priority 2006, dated 2010).

Target: T1, histamine 3 receptor (H3R) (Homo sapiens, UniProt Q9Y5N1)
T1 construct: expressed in transfected cells; host or cells: CHO
Experiment: Binding assay with 3H-(R)α-Methylhistamine (competition binding, HR3-CHO membranes)
Settings: competition binding vs 3H(R)α-Methylhistamine (1 nM), membrane of the human HR3-CHO cell line; Ki calculated from IC50 (Cheng-Prusoff)
Description: Binding Assay with ^3H—(R)α-Methylhistamine
Saturation binding experiments were performed using HR3-CHO membranes prepared as described in Takahashi, K, Tokita, S., Kotani, H. (2003) J. Pharmacol. Exp. Therapeutics 307, 213-218.
An appropriate amount of membrane (60 to 80 μg protein/well) was incubated with increasing concentrations of ^3H(R)α-Methylhistamine di-hydrochloride (0.10 to 10 nM). Non specific binding was determined using a 200 fold excess of cold (R)α-Methylhistamine dihydrobromide (500 nM final concentration). The incubation was carried out at room temperature (in deep-well plates shaking for three hours). The final volume in each well was 250 μl. The incubation was followed by rapid filtration on GF/B filters (pre-soaked with 100 μl of 0.5% PEI in Tris 50 mM shaking at 200 rpm for two hours). The filtration was made using a cell-harvester and the filter plates were then washed five times with ice cold washing buffer containing 0.5 M NaCl. After harvesting, the plates were dried at 55° C. for 60 min, then we added scintillation fluid (Microscint 40, 40 microl in each well) and the amount of radioactivity on the filter was determined in Packard top-counter after shaking the plates for two hours at 200 rpm at room temperature.
Binding Buffer: 50 mM Tris-HCl pH 7.4 and 5 mM MgCl2x6H2O pH 7.4. Washing Buffer: 50 mM Tris-HCl pH 7.4 and 5 mM MgCl2x6H2O and 0.5 M NaCl pH 7.4.
Indirect measurement of affinity of H3R inverse agonists: twelve increasing concentrations (ranging from 10 μM to 0.3 nM) of the selected compounds were always tested in competition binding experiments using membrane of the human HR3-CHO cell line. An appropriate amount of protein, e.g. approximately 500 cpm binding of RAMH at Kd, were incubated for 1 hour at room temperature in 250 μl final volume in 96-well plates in presence of ^3H(R)α-Methylhistamine (1 nM final concentration=Kd). Non-specific binding was determined using a 200 fold excess of cold (R)α-Methylhistamine dihydrobromide.
All compounds were tested at a single concentration in duplicates. […] Ki's were calculated from IC50 based on Cheng-Prusoff equation (Cheng, Y, Prusoff, W H (1973) Biochem Pharmacol 22, 3099-3108).

T1 sequence (Q9Y5N1 whole entry): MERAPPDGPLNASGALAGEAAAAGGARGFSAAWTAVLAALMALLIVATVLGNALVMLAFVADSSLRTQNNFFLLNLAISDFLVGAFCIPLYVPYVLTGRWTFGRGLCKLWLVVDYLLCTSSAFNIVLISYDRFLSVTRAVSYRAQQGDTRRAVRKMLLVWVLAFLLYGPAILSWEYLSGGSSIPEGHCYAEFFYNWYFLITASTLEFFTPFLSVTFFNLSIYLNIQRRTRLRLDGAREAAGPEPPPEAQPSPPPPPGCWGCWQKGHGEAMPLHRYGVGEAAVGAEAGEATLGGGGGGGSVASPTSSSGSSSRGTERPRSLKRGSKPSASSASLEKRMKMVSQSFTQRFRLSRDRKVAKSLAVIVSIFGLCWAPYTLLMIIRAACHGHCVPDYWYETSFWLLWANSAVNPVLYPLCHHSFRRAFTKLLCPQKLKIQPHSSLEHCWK

Compound | Ki [nM]
O=C(c1ccc2[nH]c(C(=O)N3CCCCC3)cc2c1)N1CCN(C2CCCC2)CC1 [Example 5, [5-(4-Cyclopentyl-piperazine-1-carbonyl)-1H-indol-2-yl]-piperidin-1-yl-methanone] | 28.7
CC(C)N1CCN(C(=O)c2ccc3c(c2)cc(C(=O)N2CCC(F)(F)CC2)n3C2CCC2)CC1 [Example 150, [1-Cyclobutyl-2-(4,4-difluoro-piperidine-1-carbonyl)-1H-indol-5-yl]-(4-isopropyl-piperazin-1-yl)-methanone] | 25.2

The remaining lines, values ahead:

Ki [nM] | Compound
35.6 | COc1cccc(-n2c(C(=O)N3CCC(F)(F)CC3)cc3cc(C(=O)N4CCN(C5CCCC5)CC4)ccc32)c1 [Example 84, [5-(4-Cyclopentyl-piperazine-1-carbonyl)-1-(3-methoxy-phenyl)-1H-indol-2-yl]-(4,4-difluoro-piperidin-1-yl)-methanone]
13.4 | CC(C)N1CCN(C(=O)c2ccc3c(c2)cc(C(=O)N2CCS(=O)(=O)CC2)n3-c2cccc(Cl)c2)CC1 [Example 97, [1-(3-Chloro-phenyl)-5-(4-isopropyl-piperazine-1-carbonyl)-1H-indol-2-yl]-(1,1-dioxo-thiomorpholin-4-yl)-methanone]
22.6 | CC(C)N1CCN(C(=O)c2ccc3c(c2)cc(C(=O)N2CCS(=O)(=O)CC2)n3-c2ccc(S(C)(=O)=O)cc2)CC1 [Example 221, (1,1-Dioxothiomorpholin-4-yl)-[5-(4-isopropyl-piperazine-1-carbonyl)-1-(4-methanesulfonyl-phenyl)-1H-indol-2-yl]-methanone]
41 | CC(C)N1CCCN(C(=O)c2ccc3[nH]c(C(=O)N4CCS(=O)(=O)CC4)cc3c2)CC1 [Example 245, (1,1-Dioxo-thiomorpholin-4-yl)-[5-(4-isopropyl-[1,4]diazepane-1-carbonyl)-1H-indol-2-yl]-methanone]
